Tests used:
[1] = system: Jurkat proteomes; assay: In vitro competition of KY-26 labeling, gel-based chemical proteomics; format: binding, human; conditions: pretreatment 30 min, 37° C.: ATP 10-0.5 mM, KY-424 1 and 0.5 mM, then KY-26 5 μM
Description: (§1) Briefly, Jurkat cells were grown to 80% confluency and treated with either DMSO or probe at the designated final concentration (KY-26 or XO44, 1,000× stock in serum-free media (SFM)) and incubated at 37° C. with 5% CO2 for 30 min. Cells were harvested and lysed in PBS buffer containing EDTA-free protease inhibitors. Addition of the rhodamine fluorescent tag was accomplished by CuAAC and fluorescently labeled proteins visualized by SDS-PAGE and in-gel fluorescence scanning. For KY-26 and XO44 live cell treated samples, 50 μL aliquots of proteome were used for gel experiments. […]
(§2) Cell pellets were lysed in PBS buffer (PBS+a protease inhibitor (sold under the tradename PIERCE™, Thermo Fisher Scientific, Waltham, Massachusetts, United States of America), EDTA free) by sonicating 3 times for 1 second×20% amplitude. […] Protein concentrations were measured using the Bio-Rad DC protein assay (Bio-Rad Laboratories, Hercules, California, United States of America), and fractions were diluted to a concentration of 1 mg/mL in PBS. […] 30 μL of each sample were separated by SDS-PAGE and analyzed by in-gel fluorescence scanning for the rhodamine azide tag. […]
In addition to solution reactivity, activity of KY-26 and XO44 in proteomes was compared using gel-based chemical proteomics. […] Probe-modified proteins were visualized by SDS-PAGE and in-gel fluorescence scanning. […]

[2] = target: recombinant human CDK2 (Homo sapiens, UniProt P24941); assay: Competition of KY-26 ABP labeling of recombinant CDK2 in HEK293T lysates; format: binding; conditions: then 2.5 μM KY-26 30 minutes
Description: Gateway cloning was performed to generate recombinant human CDK2 (containing a FLAG tag) overexpression plasmid (see FIG. 11) and recombinant human CDK2 was overexpressed in HEK293T mammalian cells. KY-26 and TH211 activity-based probe (ABP) labeling of the recombinant human CDK2 was performed. Briefly, recombinant human CDK2 overexpressed HEK293T lysates were incubated […] with various concentrations of TH211 (a broad-spectrum kinase ABP) or KY-26 (a targeted covalent kinase ABP) for 30- and 60-minutes. Western blots confirmed CDK2 overexpression with rabbit anti-FLAG and goat anti-rabbit 650 antibodies for samples incubated with KY-26 or TH211 probes.
Recombinant human CDK2 overexpressed HEK293T lysates were incubated with KY-424 (1 μM-10 μM) or free ATP (1 μM-10 μM) for 30 minutes at 37° C. Subsequently, samples were incubated with 2.5 μM KY-26 for 30 minutes at 37° C. […] Based on this finding, the study was performed using additional concentrations of KY-424 ([…]) or free ATP (400 μM-10 mM) for 30 minutes at 37° C. Again, samples were then incubated with 2.5 μM KY-26 for 30 minutes at 37° C. […] Lysates from 24- (KY-424 competition) and 48-hour transfections (ATP competition) were used.

[3] = system: Jurkat cells; assay: Gel-based chemical proteomics, live cell probe labeling; parameters: species or system human
Description: as §1, with “experiments. For KY-26 lysate labeling, 49 μL aliquots of cell lysate were used for each dose and time point before adding 1 μL of 50× KY-26 stock (5 μM final) and incubated for 30 min at 37° C.” for “experiments.”
as §2

[4] = HPLC solution reactivity of probe with n-butylamine (lysine mimetic); format: physicochemical; conditions: TMG base, 0° C., KY-26 compared with p-cresol
Description: (§3) Briefly, reaction progress of KY-26 or XO44 with p-cresol or n-butylamine (16.5 μmol, 3.3 eq.) in the presence of TMG base (1,1,3,3-tetramethylguanidine, 1.1 eq) was evaluated by monitoring probe consumption and quantified based on the signal from the caffeine standard using HPLC. Synthetic peptide reactions were conducted by mixing the peptide (Ac-RLNERHYGGLTGLNK-NH2, 50 nmol, 1.0 eq.) with 1.1 eq of TMG. KY-26 (550 nmol, 11.0 eq) was added to the mixture and the reaction was kept at 37° C. until the reaction achieved at least 50% conversion.
(§4) More particularly, an acetonitrile solution of p-cresol or n-butylamine (16.5 μmol, 3.3 eq.) was mixed with 1.1 eq of TMG. KY-26 or XO44 in ACN:DMF=6:4 (5 μmol, 1.0 eq.) was added to the mixture and the reaction was kept at 0° C. The final molarity for KY-26 or XO44 is 10 mM. Aliquots (50 μl) of the reaction were taken and quenched by adding acetic acid (0.5 M final, 5.0 μmol) and caffeine standard (0.05 M final, 0.5 μmol) at ten-minute intervals for 1.5 hrs. 1.0 μL sample was injected and analyzed by reverse-phase HPLC with mobile phases A (H2O, 0.1% AcOH) and B (CH3CN, 0.1% AcOH) with a gradient of 0-15-85-100% B in 0-0.5-6.5-7 min. UV measurements taken at 254 nm. Reaction progress was evaluated by monitoring KY-26 or XO44 consumption and quantified based on the signal from the caffeine standard. […]

[5] = HPLC solution reactivity of probe with p-cresol (tyrosine mimetic); format: physicochemical; conditions: UV 254 nm, TMG base, 0° C., longest time point tested 90 min
Description: as §3, §4

blockade of KY-26 labeling of recombinant human CDK2 ([2]; 40 nM KY-424, 30 minutes at 37° C., HEK293T lysates) | competition of KY-26 ABP labeling of recombinant human CDK2 ([2]; KY-424 1 μM-10 μM, 30 minutes at 37° C.) | reaction of probe with n-butylamine [4] | time to near-complete depletion of probe in reaction with p-cresol [5] | Structure (SMILES) | blockade of KY-26 labeling of proteomes [1] | probe labeling in live cells, dependence on concentration and time ([3]; 2.5-25 μM, 15-120 min) | proteome reactivity, in-gel fluorescence intensity compared with XO44 ([3]; live Jurkat cells, 5 μM, 30 min, 37° C.)
approximately 50% | potently competes |  |  | CCCNC(=O)c1cc(Nc2cc(C3CC3)[nH]n2)nc(N2CCN(C(=O)c3ccc(S(=O)(=O)n4cnc(-c5ccccc5)n4)cc3)CC2)n1 [KY-424, 6-((5-cyclopropyl-1H-pyrazol-3-yl)amino)-2-(4-(4-((3-phenyl-1H-1,2,4-triazol-1-yl)sulfonyl)benzoyl)piperazin-1-yl)-N-propylpyrimidine-4-carboxamide] | concentration-dependent blockade |  | 
 |  |  |  | Nc1ncnc2c1ncn2[C@@H]1O[C@H](COP(=O)(O)OP(=O)(O)OP(=O)(O)O)[C@@H](O)[C@H]1O [ATP, adenosine triphosphate, reference compound] | concentration-dependent blockade |  | 
 |  | reduced activity | ≤ 20 min | C#CCNC(=O)c1cc(Nc2cc(C3CC3)[nH]n2)nc(N2CCN(C(=O)c3ccc(S(=O)(=O)n4cnc(-c5ccccc5)n4)cc3)CC2)n1 [KY-26, 6-((5-cyclopropyl-1H-pyrazol-3-yl)amino)-2-(4-(4-((3-phenyl-1H-1,2,4-triazol-1-yl)sulfonyl)benzoyl)piperazin-1-yl)-N-(prop-2-yn-1-yl)pyrimidine-4-carboxamide] |  | concentration- and time-dependent probe labeling | substantially increased reactivity

— patent US20240400542A1 (University of Virginia Patent Foundation, priority 2021, published 2024)
